Experimental data from US11000511B2, “Chemical compounds as antibiotics” (priority 2017, dated 2021).

Columns and labels:
[1] = target: T1, purified LasB protein from P. aeruginosa (Pseudomonas aeruginosa, UniProt P14756); test: Fluorometric assay to determine Ki (Assay 1); format: biochemical; conditions: Ki (μM) Assay 1, purified LasB, substrate Abz-Ala-Gly-Leu-Ala-p-Nitro-Benzyl-Amide 250 μM, Ki calculated from IC50; inhibitor 0.006 to 200 μM
T1 construct: purchased Merck or Charles River Laboratories
T1 sequence (P14756 198-498): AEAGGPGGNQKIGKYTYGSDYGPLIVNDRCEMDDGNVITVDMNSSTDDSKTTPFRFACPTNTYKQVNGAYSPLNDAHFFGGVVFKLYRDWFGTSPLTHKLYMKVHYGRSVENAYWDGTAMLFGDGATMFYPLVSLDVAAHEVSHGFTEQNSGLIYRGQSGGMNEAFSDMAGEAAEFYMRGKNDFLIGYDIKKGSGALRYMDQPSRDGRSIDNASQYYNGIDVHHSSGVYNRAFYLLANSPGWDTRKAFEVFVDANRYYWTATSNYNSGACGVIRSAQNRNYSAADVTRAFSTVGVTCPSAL
Experimental: (§1) Experiments were therefore conducted (1) to measure the potency of inhibition of compounds of the invention against purified Pseudomonas aeruginosa LasB enzyme and also experiments were conducted (2) to measure the ability of compounds of the invention to inhibit LasB-catalysed elastin degradation. The first assay uses a commercial fluorescent synthetic peptide and purified LasB enzyme. The LasB hydrolysis kinetics are measured allowing the determination of the IC50 and Ki of the inhibitors; the second is a more physiological assay using dialysed Pseudomonas aeruginosa supernatant as source of enzyme, plus its natural substrate Elastin. It is an “end point assay” that determines the percentage of LasB inhibition by each compound for one particular time point and inhibitor concentration. Technical details are described below:
This assay uses commercially available substrate (Abz-Ala-Gly-Leu-Ala-p-Nitro-Benzyl-Amide (Ex: 340 nm, Em: 415 nm) from Peptide International) and purified LasB protein from P. aeruginosa (provided by Merck or Charles River Laboratories). It is performed to determine LasB elastase activity and assess compound inhibition in 96-well plate format. Some compounds of Formula (I) were assessed using the method of Assay 1 (described below). Other compounds of Formula (I) were assessed using the alternative but equivalent method of Assay 2 (described below).
Method: 10 to 140 ng/ml purified LasB is incubated with 250 μM Abz-Ala-Gly-Leu-Ala-p-Nitro-Benzyl-Amide in 50 mM Tris-HCl pH 7.4, 2.5 mM CaCl2), 0.01% of Triton X100 at 37° C. LasB activity (corresponding to fluorescence emission induced by substrate hydrolysis) is measured over 30 min at 37° C. with a fluorescence plate reader such as the Perkin Elmer Envision or similar. Different range of inhibitor concentrations are routinely assessed depending of inhibitor potency from 0.006 to 200 μM (Assay 1; 2-fold dilutions series) or from 0.0016 to 200 μM (Assay 2; 2-fold dilutions series) in order to determine IC50.
The equation used to calculate the Ki from IC50 is: Ki=IC50/(1+([S]/Km)) where [S]=250 μM and Km=214 μM.

[2] = target: T2, LasB elastase activity in dialysed supernatant from P. aeruginosa strain PA01 (Pseudomonas aeruginosa, UniProt P14756); test: Elastin Congo Red assay to determine % inhibition (Assay 1); format: biochemical; conditions: read-out: Elastin hydrolysis % inhibition @ 50/25 μM inhibitor concentration Assay 1
T2 construct: uses as source of enzyme dialysed supernatant from P. aeruginosa; endogenous in cells; host or cells: P. aeruginosa strain PA01 culture supernatant, filtered and dialysed
T2 sequence (P14756 198-498): as above
Experimental: as §1
The Elastin assay uses as source of enzyme dialysed supernatant from P. aeruginosa and the elastin congo red as substrate. The natural LasB substrate, elastin, is complexed with the congo red dye (Elastin Congo Red, ECR). The elastolysis activity from the culture supernatant will degrade elastin and release the congo red dye into the supernatant. This red dye release can be measured with a spectrophotometer. Some compounds of Formula (I) were assessed using the method of Assay 1 (described below). Other compounds of Formula (I) were assessed using the alternative but equivalent method of Assay 2 (described below).
Method (Assay 1): To determine LasB elastase activity and assess compound inhibition, an overnight culture of P. aeruginosa strain PA01 is diluted thousand-fold in LB medium. This diluted solution is incubated during 19 hours in a shaking incubator. Culture supernatants are recovered by centrifugation and filtrated through a […] filter. These supernatants are dialysed (filtration molecules <20 kDa) into a 50 mM Tris pH 7.4, 2.5 mM CaCl2 solution at 4° C. under agitation for 24 hours. Supernatant dialysed is then mixed volume/volume with the ECR suspension (20 mg/mL of ECR in 100 mM Tris buffer supplemented with 1 mM CaCl2) supplemented with TritonX 100 (final concentration of 0.01%) in presence of different concentrations of compound (routinely 50 and 25 μM). The mixed reaction is then incubated for 24 hours in a 37° shaking incubator. As a negative control, the mixed supernatant is replaced by Tris solution (50 mM Tris pH 7.4, 2.5 mM CaCl2). The reaction supernatant is recovered by centrifugation and the release of congo red is measured by its absorbance at OD520. Percentage inhibition is determined using the following equation: (OD520 value of DMSO SN−OD520 value of LB)−(OD520 value of Compound SN−OD520 value of LB)/(OD520 value of DMSO SN−OD520 value of LB)×100.

Compound	Ki [1] [µM]	inhibition at 50 µM [2] [%]
O=C(O)CC1(C(=O)NCc2coc3ccccc23)Cc2ccccc2C1 [Example 57, 2-[2-(benzofuran-3-ylmethylcarbamoyl)indan-2-yl]acetic acid]	0.3 to 2	30 to 60
C[N+](C)(C)CCNC(=O)[C@H](Cc1c[nH]c2ccccc12)NC(=O)C1(CC(=O)O)Cc2ccccc2C1 [Example 46, (2-{[(1S)-2-(1H-indol-3-yl)-1-{[2-(trimethylammonio)ethyl]carbamoyl}ethyl]carbamoyl}-1,3-dihydroinden-2-yl)acetate]	2 to 10	30 to 60
NCCCc1ccc2nc(CNC(=O)C3(CC(=O)O)Cc4ccccc4C3)sc2c1 [Example 38, 2-[2-[[6-(3-aminopropyl)-1,3-benzothiazol-2-yl]methylcarbamoyl]indan-2-yl]acetic acid]	0.3 to 2	> 60
C[N+](C)(C)CCCc1ccc2nc(CNC(=O)C3(CC(=O)O)Cc4ccccc4C3)sc2c1 [Example 37, 3-[2-[[[2-(carboxymethyl)indane-2-carbonyl]amino]methyl]-1,3-benzothiazol-6-yl]propyl-trimethyl-ammonium]	0.3 to 2	> 60
N[C@H]1CCN(c2ccc3sc(CNC(=O)C4(CC(=O)O)Cc5ccccc5C4)nc3c2)C1 [Example 103, 2-[2-[[5-[(3 S)-3-aminopyrrolidin-1-yl]-1,3-benzothiazol-2-yl]methylcarbamoyl]indan-2-yl]acetic acid]	0.3 to 2	> 60
COc1ccc2nc(CNC(=O)C3(CC(=O)O)Cc4ccccc4C3)sc2c1 [Example 32, 2-[2-[(6-methoxy-1,3-benzothiazol-2-yl)methylcarbamoyl]indan-2-yl]acetic acid]	< 0.3	> 60
C[N+](C)(C)C1CN(c2ccc3sc(CNC(=O)C4(CC(=O)[O-])Cc5ccccc5C4)nc3c2)C1 [Example 75, 2-[2-[[5-[3-(trimethylammonio)azetidin-1-yl]-1,3-benzothiazol-2-yl]methylcarbamoyl]indan-2-yl]acetate]	0.3 to 2	> 60
N[C@@H]1CCN(c2ccc3sc(CNC(=O)C4(CC(=O)O)Cc5ccccc5C4)nc3c2)C1 [Example 104, 2-[2-[[5-[(3R)-3-aminopyrrolidin-1-yl]-1,3-benzothiazol-2-yl]methylcarbamoyl]indan-2-yl]acetic acid]	0.3 to 2	> 60
C[N+](C)(C)CC#Cc1ccc2nc(CNC(=O)C3(CC(=O)[O-])Cc4ccccc4C3)sc2c1 [Example 86, 2-[2-[[6-[3-(trimethylammonio)prop-1-ynyl]-1,3-benzothiazol-2-yl]methylcarbamoyl]indan-2-yl]acetate]	< 0.3	> 60
O=C(O)CC1(C(=O)NCc2ccc3ccccc3n2)Cc2ccccc2C1 [Example 55, 2-(2-((quinolin-2-ylmethyl)carbamoyl)-2,3-dihydro-1H-inden-2-yl)acetic acid]	0.3 to 2	> 60
CN1CCN(c2ccc3nc(CNC(=O)C4(CC(=O)O)Cc5ccccc5C4)sc3c2)CC1 [Example 42, 2-[2-[[6-(4-methylpiperazin-1-yl)-1,3-benzothiazol-2-yl]methylcarbamoyl]indan-2-yl]acetic acid]	0.3 to 2	> 60
CN(C)CCNc1ccc2sc(CNC(=O)C3(CC(=O)O)Cc4ccccc4C3)nc2c1 [Example 76, 2-[2-[[5-[2-(dimethylamino)ethylamino]-1,3-benzothiazol-2-yl]methylcarbamoyl]indan-2-yl]acetic acid]	0.3 to 2	> 60
O=C(O)CC1(C(=O)NCc2nc3c(N4CCOCC4)cccc3s2)Cc2ccccc2C1 [Example 66, 2-(2-(((4-morpholinobenzo[d]thiazol-2-yl)methyl)carbamoyl)-2,3-dihydro-1H-inden-2-yl)acetic acid]	0.3 to 2	> 60
O=C(O)CC1(C(=O)NCc2nc3cc(O)ccc3s2)Cc2ccccc2C1 [Example 130, 2-[2-[(5-hydroxy-1,3-benzothiazol-2-yl)methylcarbamoyl]indan-2-yl]acetic acid]	< 0.3	> 60
C[N+](C)(C)C1CN(c2ccc3nc(CNC(=O)C4(CC(=O)[O-])Cc5ccccc5C4)sc3c2)C1 [Example 68, 2-[2-[[6-[3-(trimethylammonio)azetidin-1-yl]-1,3-benzothiazol-2-yl]methylcarbamoyl]indan-2-yl]acetate]	0.3 to 2	30 to 60
NC/C=C/c1ccc2nc(CNC(=O)C3(CC(=O)O)Cc4ccccc4C3)sc2c1 [Example 39, 2-[2-[[6-[(E)-3-aminoprop-1-enyl]-1,3-benzothiazol-2-yl]methylcarbamoyl]indan-2-yl]acetic acid]	< 0.3	> 60
O=C(O)CC1(C(=O)NCc2nc3ccc(N4CCNCC4)cc3s2)Cc2ccccc2C1 [Example 41, 2-[2-[(6-piperazin-1-yl-1,3-benzothiazol-2-yl)methylcarbamoyl]indan-2-yl]acetic acid]	0.3 to 2	30 to 60
O=C(O)CC1(C(=O)NCCc2cc3ccccc3s2)Cc2ccccc2C1 [Example 30, 2-[2-[2-(benzothiophen-2-yl)ethylcarbamoyl]indan-2-yl]acetic acid]	2 to 10	15 to 30
CN(C)C1CN(c2ccc3nc(CNC(=O)C4(CC(=O)O)Cc5ccccc5C4)sc3c2)C1 [Example 67, 2-(2-(((6-(3-(dimethylamino)azetidin-1-yl)benzo[d]thiazol-2-yl)methyl)carbamoyl)-2,3-dihydro-1H-inden-2-yl)acetic acid]	0.3 to 2	> 60
CC(C)(C)OC(=O)[C@H](Cc1c[nH]c2ccccc12)NC(=O)C1(CC(=O)O)Cc2ccccc2C1 [Example 47, (S)-2-(2-((1-(tert-butoxy)-3-(1H-indol-3-yl)-1-oxopropan-2-yl)carbamoyl)-2,3-dihydro-1H-inden-2-yl)acetic acid]	< 0.3	> 60
NC1CN(c2ccc3sc(CNC(=O)C4(CC(=O)O)Cc5ccccc5C4)nc3c2)C1 [Example 73, 2-[2-[[5-(3-aminoazetidin-1-yl)-1,3-benzothiazol-2-yl]methylcarbamoyl]indan-2-yl]acetic acid]	< 0.3	> 60
C[N+](C)(C)C[C@H]1C[C@H](c2ccc3nc(CNC(=O)C4(CC(=O)[O-])Cc5ccccc5C4)sc3c2)C1 [Example 92, 2-[2-[[6-[(1r,3r)-3-[(trimethylammonio)methyl]cyclobutyl]-1,3-benzothiazol-2-yl]methylcarbamoyl]indan-2-yl]acetate]	0.3 to 2	> 60
CC(NC(=O)C1(CC(=O)O)Cc2ccccc2C1)c1cc2ccccc2o1 (single isomer, unassigned) [Example 58, 2-[2-[[(1R*)-1-(benzofuran-2-yl)ethyl]carbamoyl]indan-2-yl]acetic acid]	2 to 10	30 to 60
